The numbers were not newly measured in patent publication US20150037408A1, “Delayed Release Pharmaceutical Compositions of Salsalate” (priority 2012, published 2015), which cites them from elsewhere.

For series [1] the following is noted: 3 grams daily (two 750-mg tablets twice daily) for 15 days.
For series [2] the following is noted: patients with osteoarthrosis of the hip or knee.

Regarding `O=C(Oc1ccccc1C(=O)O)c1ccccc1O` [Salsalate, 2-hydroxybenzoic acid 2-carboxyphenyl ester], the “efficacy and safety in arthritic disease” value in series [1] was “effective and safe in ameliorating the symptoms of arthritic disease”. For the same compound, in series [2], the “clinical improvement versus aspirin” value is recorded as “comparable clinical improvement to that with aspirin”; the “side-effects and faecal occult blood loss versus aspirin” value is “significantly superior to aspirin”.
